# In patent US20230219979A1, “PYRAZOLO[1,5-a]PYRIDINE COMPOUND, PREPARATION METHOD THEREFOR AND USE THEREOF” (SHENZHEN ZHONGGE BIOLOGICAL TECHNOLOGY CO., LTD., priority 2019, published 2023):
# Like-named read-outs stand apart in the source and are kept apart here.
# Tests used:
# Wild-type RET kinase = Wild-type RET kinase (Homo sapiens, UniProt P07949); assay: HTRF method for testing the inhibitory activity of compounds against RET; type: biochemical
# VEGFR2 kinase = VEGFR2 kinase (Homo sapiens, UniProt P35968); assay: HTRF method for testing the inhibitory activity of compounds against VEGFR2; type: biochemical
# Ba/F3-KIF5B-RET cell = target: T1, Ba/F3-KIF5B-RET cell (Homo sapiens, UniProt P07949); assay: CellTiter-Glo luminescence assay, inhibitory activity against Ba/F3-KIF5B-RET cell; type: cell-based
# T1 construct: fused on or other part: P33176 (Kinesin-1 heavy chain)
# Text: (C) In Vitro Screening Experiment - CellTiter-Glo Luminescence Assay for Testing The inhibitory activity of compounds against Ba/F3-KIF5B-RET cell
# • 1. The mammalian cell expression vector containing human KIF5B-RET cDNA was introduced into Ba/F3 cells using the Neon® transfection system method, and the surviving clones screened by puromycin were subjected to cell growth inhibitory function experiments and Western blotting to verify cell lines with stable and high expression of RET. • 2. Cells were cultured in RPMI 1640 medium containing 10% fetal bovine serum, 1% penicillin-streptomycin, and 2 µg/mL puromycin, and then placed in a 37° C., 5% carbon dioxide cell incubator. • 3. The test compound (5 mM stock) was diluted 2.5 folds to […] with 100% dimethyl sulfoxide; and the compound was diluted into 10 concentrations at an equal ratio of 1:3 in a 384-well dilution plate. • 4. 0.2 µL of the serially diluted compound was added to a 384-well cell culture plate (Corning, 3570) using an Echo 550 pipetting system, 2 replicate wells for each concentration, and the final concentration of dimethyl sulfoxide was 0.5% (v/v). The gradient concentrations of the test compound were 5000, 1666.7, 555.5, 185.18, 61.72, 20.57, 6.858, 2.286, 0.764, 0.254 nM. • 5. 40 µL of Ba/F3-KIF5B-RET cell suspension containing 800 cells was added to each well, and incubated for 72 h in a 5% CO2 cell incubator. • 6. 20 µL of Cell Titer-Glo reagent was added to each well of the cell culture plate, and the culture system was then shaken and mixed thoroughly for 2 min to lyse the cells, the cells were then incubated at room temperature for 30 min, and the […] signal values were then read with an Envision 2104 microplate reader. • 7. By fitting the data with XLFit 5.0 based on the parameters formula, the IC50 value was calculated as: • [formula]
# [1] = HTRF, read-out: Wild-type RET kinase
# [2] = 72 h, read-out: Ba/F3-KIF5B-RET cell activity
# VEGFR2 kinase, sequence (P35968 20-1356): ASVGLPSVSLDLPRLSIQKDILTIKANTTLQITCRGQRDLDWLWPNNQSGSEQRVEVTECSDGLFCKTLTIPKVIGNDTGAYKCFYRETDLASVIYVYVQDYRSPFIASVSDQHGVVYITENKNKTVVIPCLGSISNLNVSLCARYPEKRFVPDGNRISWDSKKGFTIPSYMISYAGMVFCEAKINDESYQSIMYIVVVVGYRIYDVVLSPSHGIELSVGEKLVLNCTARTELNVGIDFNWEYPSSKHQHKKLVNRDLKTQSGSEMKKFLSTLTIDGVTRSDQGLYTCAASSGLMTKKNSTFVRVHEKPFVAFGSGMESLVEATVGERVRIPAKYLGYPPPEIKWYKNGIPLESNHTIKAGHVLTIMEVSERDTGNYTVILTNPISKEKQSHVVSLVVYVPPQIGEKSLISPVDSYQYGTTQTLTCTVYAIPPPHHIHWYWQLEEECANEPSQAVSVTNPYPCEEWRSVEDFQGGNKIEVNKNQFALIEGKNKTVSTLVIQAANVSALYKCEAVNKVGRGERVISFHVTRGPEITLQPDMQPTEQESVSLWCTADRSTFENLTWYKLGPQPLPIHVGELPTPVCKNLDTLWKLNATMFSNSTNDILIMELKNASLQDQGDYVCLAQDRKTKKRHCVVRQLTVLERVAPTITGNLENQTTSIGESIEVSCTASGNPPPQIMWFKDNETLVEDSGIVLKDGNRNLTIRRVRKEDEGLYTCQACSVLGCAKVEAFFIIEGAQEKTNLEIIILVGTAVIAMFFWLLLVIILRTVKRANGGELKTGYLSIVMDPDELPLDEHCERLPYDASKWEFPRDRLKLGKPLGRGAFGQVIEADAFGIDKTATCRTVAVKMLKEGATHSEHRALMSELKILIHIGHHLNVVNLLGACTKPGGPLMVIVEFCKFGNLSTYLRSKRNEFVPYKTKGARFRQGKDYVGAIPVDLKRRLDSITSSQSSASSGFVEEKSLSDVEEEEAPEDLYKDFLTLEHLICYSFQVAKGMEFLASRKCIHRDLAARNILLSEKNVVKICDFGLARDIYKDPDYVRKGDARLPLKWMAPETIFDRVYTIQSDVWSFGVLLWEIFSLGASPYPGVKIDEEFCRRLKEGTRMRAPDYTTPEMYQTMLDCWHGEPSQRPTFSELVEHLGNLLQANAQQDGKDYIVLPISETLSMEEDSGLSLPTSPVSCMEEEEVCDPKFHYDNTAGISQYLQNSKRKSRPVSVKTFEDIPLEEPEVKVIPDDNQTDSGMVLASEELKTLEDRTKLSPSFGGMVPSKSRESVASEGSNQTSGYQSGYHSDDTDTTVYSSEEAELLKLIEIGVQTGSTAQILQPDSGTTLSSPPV
# Wild-type RET kinase, sequence (P07949 29-1114): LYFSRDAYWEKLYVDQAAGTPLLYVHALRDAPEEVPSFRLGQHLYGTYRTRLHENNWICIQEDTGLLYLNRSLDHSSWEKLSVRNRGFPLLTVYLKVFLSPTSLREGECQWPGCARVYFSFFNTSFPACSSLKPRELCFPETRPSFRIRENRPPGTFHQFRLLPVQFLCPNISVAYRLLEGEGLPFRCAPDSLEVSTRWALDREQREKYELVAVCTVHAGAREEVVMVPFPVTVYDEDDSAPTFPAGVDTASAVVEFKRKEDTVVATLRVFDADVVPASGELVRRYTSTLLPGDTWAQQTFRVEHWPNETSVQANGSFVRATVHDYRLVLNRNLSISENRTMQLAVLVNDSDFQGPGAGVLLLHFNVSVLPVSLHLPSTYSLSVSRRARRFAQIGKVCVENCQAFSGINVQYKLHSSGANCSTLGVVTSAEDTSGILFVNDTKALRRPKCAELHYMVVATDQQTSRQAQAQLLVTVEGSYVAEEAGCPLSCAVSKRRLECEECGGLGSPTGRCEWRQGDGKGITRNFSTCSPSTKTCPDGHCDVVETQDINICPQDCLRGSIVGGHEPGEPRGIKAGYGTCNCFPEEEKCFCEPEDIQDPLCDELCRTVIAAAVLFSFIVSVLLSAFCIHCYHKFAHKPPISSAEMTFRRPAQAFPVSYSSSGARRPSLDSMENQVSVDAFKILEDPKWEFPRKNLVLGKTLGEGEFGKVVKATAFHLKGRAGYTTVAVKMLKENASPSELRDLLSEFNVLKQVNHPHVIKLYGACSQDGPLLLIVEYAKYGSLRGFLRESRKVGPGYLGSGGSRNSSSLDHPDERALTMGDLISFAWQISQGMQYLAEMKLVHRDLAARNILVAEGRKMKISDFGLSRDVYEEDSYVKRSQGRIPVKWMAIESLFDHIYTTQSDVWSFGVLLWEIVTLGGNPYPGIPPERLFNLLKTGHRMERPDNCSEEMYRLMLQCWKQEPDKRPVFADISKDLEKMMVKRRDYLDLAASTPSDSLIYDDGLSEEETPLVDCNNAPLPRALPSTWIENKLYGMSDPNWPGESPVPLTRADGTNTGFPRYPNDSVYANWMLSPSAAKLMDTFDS
# T1 sequence (P07949 whole entry, stated change not applied, the tested form may be a part): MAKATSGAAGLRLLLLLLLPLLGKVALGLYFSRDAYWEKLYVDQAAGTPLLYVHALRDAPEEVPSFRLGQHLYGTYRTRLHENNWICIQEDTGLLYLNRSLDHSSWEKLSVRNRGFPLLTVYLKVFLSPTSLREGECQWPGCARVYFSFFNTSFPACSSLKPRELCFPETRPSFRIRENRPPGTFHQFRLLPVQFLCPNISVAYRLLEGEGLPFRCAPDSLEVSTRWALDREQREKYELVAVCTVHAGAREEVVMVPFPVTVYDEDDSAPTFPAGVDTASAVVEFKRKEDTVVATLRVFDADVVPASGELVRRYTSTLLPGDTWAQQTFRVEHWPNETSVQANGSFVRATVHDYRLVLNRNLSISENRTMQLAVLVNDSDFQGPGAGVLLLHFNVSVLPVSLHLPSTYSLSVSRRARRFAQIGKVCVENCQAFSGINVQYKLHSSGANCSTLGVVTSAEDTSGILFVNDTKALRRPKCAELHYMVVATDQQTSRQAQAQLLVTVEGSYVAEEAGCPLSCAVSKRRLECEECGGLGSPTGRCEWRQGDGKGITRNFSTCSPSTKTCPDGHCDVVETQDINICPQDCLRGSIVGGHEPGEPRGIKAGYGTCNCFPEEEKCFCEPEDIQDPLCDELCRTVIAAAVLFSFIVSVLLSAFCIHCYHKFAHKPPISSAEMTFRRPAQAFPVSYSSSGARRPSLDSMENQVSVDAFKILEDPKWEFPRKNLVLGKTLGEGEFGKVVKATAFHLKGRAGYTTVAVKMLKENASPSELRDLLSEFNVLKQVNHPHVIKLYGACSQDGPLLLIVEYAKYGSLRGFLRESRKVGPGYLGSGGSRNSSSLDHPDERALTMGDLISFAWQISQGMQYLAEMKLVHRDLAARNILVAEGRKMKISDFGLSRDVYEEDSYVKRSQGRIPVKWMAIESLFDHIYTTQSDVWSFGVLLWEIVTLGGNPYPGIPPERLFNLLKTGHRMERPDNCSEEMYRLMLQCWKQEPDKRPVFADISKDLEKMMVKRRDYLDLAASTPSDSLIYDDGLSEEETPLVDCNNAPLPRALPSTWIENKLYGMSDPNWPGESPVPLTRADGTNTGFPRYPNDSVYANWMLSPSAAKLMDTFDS
Molecule,IC50 (Wild-type RET kinase; [1]),IC50 (VEGFR2 kinase),GI50 (Ba/F3-KIF5B-RET cell; [2]),IC50 (Wild-type RET kinase),"GI50 (Ba/F3-KIF5B-RET cell; read-out: Ba/F3-KIF5B-RET cell activity, 72 h)"
"COc1ccc(CN2CCN(c3ccc(-c4cc(-c5cnn(C)c5)cn5ncc(C(N)=O)c45)cn3)CC2)cn1 [Compound 8, 4-(6-(4-((6-methoxypyridin-3-yl)methyl)piperazin-1-yl)pyridin-3-yl)-6-(1-methyl-1H-pyrazol-4-yl)pyrazolo[1,5-a]pyridine-3-carboxamide]",250 nM,≥ 5000 nM,–,–,–
"COc1ccc(CN2C3CC2CN(c2cnc(-c4cc(OCCN5C6CCC5COC6)cn5ncc(C#N)c45)cn2)C3)cn1 [Compound 31, 6-(2-(3-oxa-8-azabicyclo[3.2.1]oct-8-yl)ethoxy)-4-(5-(6-((6-methoxypyridine-3-yl)methyl)-3,6diazabicyclo[3.1.1]heptan-3-yl)pyrazin-2-yl)pyrazolo[1,5-a]pyridine-3-carbonitrile]",1.4 nM,–,5.1 nM,–,–
"COc1ccc(CN2C3CC2CN(c2cnc(-c4cc(OCCN5CCC6(CC5)CC(=O)N6)cn5ncc(C#N)c45)cn2)C3)cn1 [Compound 32, 4-(5-(6-((6-methoxypyridin-3-yl)methyl)-3,6-diazabicyclo[3.1.1]heptan-3-yl)pyrazin-2-yl)-6-(2-(2-oxo-1,7-diazaspiro[3.5]non-7-yl)ethoxy)pyrazolo[1,5-a]pyridine-3-carbonitrile]",4.14 nM,–,83.3 nM,–,–
"COc1ccc(CN2C3CC2CN(c2cnc(-c4cc(OCCN5CC6(CCCOC6)C5)cn5ncc(C#N)c45)cn2)C3)cn1 [Compound 33, 6-(2-(6-oxa-2-azaspiro[3.5]non-2-yl)ethoxy)-4-(5-(6-((6-methoxypyridin-3-yl)methyl)-3,6-diazabicyclo[3.1.1]heptan-3-yl)pyrazin-2-yl)pyrazolo[1,5-a]pyridine-3-carbonitrile]",5.73 nM,–,26 nM,–,–
"COc1ccc(CN2C3CC2CN(c2cnc(-c4cc(OCCN5CC6(CCCO6)C5)cn5ncc(C#N)c45)cn2)C3)cn1 [Compound 34, 6-(2-(5-oxa-2-azaspiro[3.4]oct-2-yl)ethoxy)-4-(5-(6-((6-methoxypyridin-3-yl)methyl)-3,6-diazabicyclo[3.1.1]heptan-3-yl)pyrazin-2-yl)pyrazolo[1,5-a]pyridine-3-carbonitrile]",2.04 nM,–,13.8 nM,–,–
"COc1ccc(CN2C3CC2CN(c2cnc(-c4cc(OCCN5CCC6(CCCNC6=O)CC5)cn5ncc(C#N)c45)cn2)C3)cn1 [Compound 35, 4-(5-(6-((6-methoxypyridin-3-yl)methyl)-3,6-diazabicyclo[3.1.1]heptan-3-yl)pyrazin-2-yl)-6-(2-(-1-oxo-2,9-diazaspiro[5.5]undecan-9-yl)ethoxy)pyrazolo[1,5-a]pyridine-3-carbonitrile]",3.08 nM,–,81.5 nM,–,–
"COc1ccc(CN2C3CC2CN(c2cnc(-c4cc(OCCN5CC6(COC6)C5)cn5ncc(C#N)c45)cn2)C3)cn1 [Compound 36, 6-(2-(2-oxa-6-azaspiro[3.3]hept-6-yl)ethoxy)-4-(5-(6-((6-methoxypyridin-3-yl)methyl)-3,6-diazabicyclo[3.1.1]heptan-3-yl)pyrazin-2-yl)pyrazolo[1,5-a]pyridine-3-carbonitrile]",2.44 nM,454 nM,32.1 nM,–,–
"COc1ccc(CN2C3CC2CN(c2cnc(-c4cc(OCCN5CCC6(CCOCC6)CC5)cn5ncc(C#N)c45)cn2)C3)cn1 [Compound 37, 6-(2-(3-oxa-9-azaspiro[5.5]undec-9-yl)ethoxy)-4-(5-(6-((6-methoxypyridin-3-yl)methyl)-3,6-diazabicyclo[3.1.1]heptan-3-yl)pyrazin-2-yl)pyrazolo[1,5-a]pyridine-3-carbonitrile]",5.7 nM,801 nM,–,–,–
"COc1ccc(CN2C3CC2CN(c2cnc(-c4cc(OCCN5CC6CCC5C6)cn5ncc(C#N)c45)cn2)C3)cn1 (centres unmarked) [Compound 38, 6-(2-(2-azabicyclo[2.2.1]hept-2-yl)ethoxy)-4-(5-(6-((6-methoxypyridine-3-yl)methyl)-3,6-diazabicyclo[3.1.1]heptan-3-yl)pyrazin-2-yl)pyrazolo[1,5-a]pyridine-3-carbonitrile]",3.22 nM,666 nM,37.3 nM,–,–
"COc1ccc(CN2C3CC2CN(c2cnc(-c4cc(OCC(C)(C)C#N)cn5ncc(C#N)c45)cn2)C3)cn1 [Compound 39, 6-(2-cyano-2-methylpropoxy)-4-(5-(6-((6-methoxypyridin-3-yl)methyl)-3,6-diazabicyclo[3.1.1]heptan-3-yl)pyrazinpyridin-2-yl)pyrazolo[1,5-a]pyridine-3-carbonitrile]",1.25 nM,259 nM,15.6 nM,–,–
"COc1ccc(CN2C3CC2CN(c2cnc(-c4cc(OCC5C[C@H]6CC[C@@H](C5)N6)cn5ncc(C#N)c45)cn2)C3)cn1 (stereo partly drawn) [Compound 40, 6-(((1R, 5S)-8-azabicyclo[3.2.1]oct-3-yl)methoxy)-4-(5-(6-((6-methoxypyridine-3-yl)methyl)-3,6diazabicyclo[3.1.1]heptan-3-yl)pyrazin-2-yl)pyrazolo[1,5-a]pyridine-3-carbonitrile]",0.86 nM,112 nM,208 nM,–,–
"COc1ccc(CN2C3CC2CN(c2cnc(-c4cc(OC(=O)NC(C)C)cn5ncc(C#N)c45)cn2)C3)cn1 [Compound 41, 3-cyano-4-(5-(6-((6-methoxypyridin-3-yl)methyl)-3,6-diazabicyclo[3.1.1]heptan-3-yl)pyrazin-2-yl)pyrazolo[1,5-a]pyridin-6-ylisopropylcarbamate]",–,–,–,6.2 nM,266 nM
"COc1ccc(CN2C3CC2CN(c2ccc(-c4cc(NCCO)cn5ncc(C#N)c45)cn2)C3)cn1 [Compound 51, 6-((2-hydroxyethyl)amino)-4-(6-(6-((6-methoxypyridin-3-yl)methyl)-3,6-diazabicyclo[3.1.1]hept-3-yl)pyridin-3-yl)pyrazolo[1,5-a]pyridine-3-carbonitrile]",0.22 nM,19.3 nM,–,–,–
"COc1ccc(CN2C3CC2CN(c2ccc(-c4cc(N5CCCC5)cn5ncc(C#N)c45)cn2)C3)cn1 [Compound 55, 4-(6-(6-((6-methoxypyridin-3-yl)methyl)-3,6-diazabicyclo[3.1.1]heptyl-3-yl)pyridin-3-yl)-6-(pyrrolidin-1-yl)pyrazolo[1,5-a]pyridine-3-carbonitrile]",0.49 nM,8.48 nM,6.77 nM,–,–
"COc1ccc(CN2C3CC2CN(c2ccc(-c4cc(NCC(=O)N(C)C)cn5ncc(C#N)c45)cn2)C3)cn1 [Compound 59, 2-((3-cyano-4-(6-(6-((6-methoxypyridin-3-yl)methyl)-3,6-diazabicyclo[3.1.1]heptan-3-yl)pyridin-3-yl)pyrazolo[1,5-a]pyridin-6-yl)amino)-N,N-dimethylacetamide]",1.69 nM,93.8 nM,11.9 nM,–,–
COc1ccc(CN2C3CC2CN(c2ccc(-c4cc(N(C)CCN(C)C)cn5ncc(C#N)c45)cn2)C3)cn1 [Compound 61],1.1 nM,482 nM,60.4 nM,–,–
"ethyl 4(6-(4-(6-methoxypyridin-3-yl)piperazin-1-yl)pyridin-3-yl)-6-(1-methyl-1H-pyrazol-4-yl)H-pyrazolo[1,5-a]pyridine-3-carboxylate [Compound 1]",3.1 nM,–,271 nM,–,–
